Holding throughout (assay): growth of human tumour cells (NCI), 48 h
In assay [1] the test system is DU-145 prostate.
Assay [2] deals with UACC-62 melanoma.
The subject of assay [3] is M14 melanoma.
For assay [4], the system named is SNB-75 CNS.
The test system of assay [5] is NCI-H460 lung.
In assay [6] the test system is SF-539 CNS.
The test system of assay [7] is MDA-N.
Assay [8] has as its system SK-MEL-28 melanoma.
The test system of assay [9] is IGROV1 ovarian.
In assay [10] the test system is HOP-92 NSCLC.
Assay [11] relates to HOP-62 NSCLC.
The subject of assay [12] is ACHN renal.
Assay [13] deals with T-47D breast.
Assay [14] has as its system BT-549 breast.
In assay [15] the test system is UO-31 renal.
In assay [16] the test system is HS 578T breast.
For assay [17], the system named is SN12C renal.
Assay [18] has as its system K-562 leukemia.
Assay [19] deals with A498 renal.
Assay [20] concerns SR leukemia.

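Exposure lasted 48 hours, with cells grown in 96-well plates and compounds tested at five concentrations. Definition used: TGI = concentration required for complete inhibition of growth.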

Turning to `O=NN1C(c2ccccc2)CC(=NO)CC1c1ccccc1` (centres undefined), the TGI in assay [1], in assay [2], in assay [3], in [4], in assay [5] and in [6] was > 100 µM each time. The TGI in assay [7], in assay [8], in [9], in assay [10], in assay [11] and in assay [12] was > 100 µM throughout. Moreover, the TGI in [13], in [14], in assay [15], in [16], in assay [17] and in assay [18] was > 100 µM throughout.

On to `N#C[C@@H](c1nc2ccccc2s1)c1ncccc1[N+](=O)[O-]`, for which the TGI in assay [1] was > 31.6 µM; in assay [2] it was > 31.6 µM; in [3], > 31.6 µM; in [4], > 31.6 µM; in assay [5], 14.2 µM; in assay [7], > 31.6 µM. The TGI in assay [10] is 6.85 µM; in assay [11] it was > 57.6 µM; in [12], > 31.6 µM; in assay [13] it was 25 µM; in [14], 26.9 µM; in assay [15], 25.6 µM. The TGI in [16] is 27.6 µM; in assay [17] it was > 31.6 µM; in assay [19], > 31.6 µM.

For `Cc1cc2c(cc1Cl)SC(NNC(=O)c1ccco1)=NS2(=O)=O`, the TGI in assay [1], in assay [2], in [3], in assay [4], in assay [5] and in assay [6] was > 10 µM each time. In addition, the TGI in assay [7], in assay [8], in assay [9], in assay [11], in assay [12] and in assay [13] was > 10 µM throughout. Moreover, the TGI in assay [14], in [15], in assay [16], in [17], in [19] and in assay [18] was > 10 µM throughout.

Consider `CC(Cc1ccccc1)Nc1ncnc2c1ncn2C1OC(CO)CC1O` (centres undefined), for which the TGI in assay [1], in assay [2], in [3], in assay [4], in [5] and in [7] was > 100 µM in each case. Further, the TGI in assay [8], in assay [9], in [10], in assay [11], in assay [12] and in [13] was > 100 µM in each case. The TGI in assay [14], in [15], in [16], in assay [17], in assay [19] and in assay [18] was > 100 µM each time.

In the case of `CCOC(=O)c1cc(=O)c2ccnc3c2n1CCS3`, the TGI in [1], in assay [2], in assay [3], in assay [4], in [5] and in [6] was > 100 µM each time. For the same compound, the TGI in assay [7], in [8], in assay [9], in assay [10], in assay [11] and in [12] was > 100 µM in each case. The TGI in assay [13], in assay [14], in assay [15], in assay [16], in assay [17] and in [19] was > 100 µM each time.

On to `N#CC(C#N)=C1c2ccccc2C(=NN)c2ccccc21`, for which the TGI in assay [1], in [2], in [3], in [4], in [6] and in assay [7] was > 100 µM throughout. For the same compound, the TGI in [8] is > 100 µM; in [9] it was > 100 µM; in assay [10], > 100 µM; in [11], > 100 µM; in [12], > 63.9 µM; in assay [14] it was > 100 µM. Moreover, the TGI is > 100 µM in [15]; > 100 µM in assay [20]; > 91.5 µM in assay [16]; > 100 µM in [17]; > 100 µM in assay [19]; > 100 µM in [18].

Consider `CCOC(=O)c1nnsc1NC(=O)Nc1ccc(Cc2ccc(NC(=O)Nc3snnc3C(=O)OCC)cc2)cc1`, for which the TGI in assay [1], in assay [2], in [3], in assay [4], in assay [5] and in assay [7] was > 100 µM in each case. Further, the TGI in assay [8], in assay [9], in [11], in assay [12], in assay [13] and in [14] was > 100 µM in each case. Besides, the TGI in assay [15], in assay [16], in [17] and in [18] was > 100 µM throughout.

For `COc1ccc(/C=C2\NC(=S)N(/C=C3\C(=O)Oc4ccccc4C3=O)C2=O)cc1OC`, the TGI in [1], in assay [2], in assay [3], in assay [4], in assay [5] and in [6] was > 100 µM throughout. The TGI in assay [7], in assay [9], in [10], in [11], in assay [12] and in assay [13] was > 100 µM each time. For the same compound, the TGI in assay [14], in assay [15], in assay [16], in assay [17], in assay [19] and in assay [18] was > 100 µM each time.

Turning to `CCCc1cc(=O)oc2c3c(c4c(c12)OC(C)(C)CC4)O[C@@H](C)[C@H](C)[C@H]3O`, the TGI was 31.8 µM in assay [1]; 21.1 µM in [2]; 28.3 µM in assay [3]; 22.5 µM in assay [4]; 24.2 µM in assay [5]; 38.2 µM in assay [6]. The TGI in [7] was determined as 16.4 µM; in assay [8], 42 µM; in assay [9], 32.7 µM; in assay [10] it was 26.5 µM; in assay [11], 33.4 µM; in [13] it was 23.2 µM. Besides, the TGI amounted to 17.9 µM in assay [14]; 19 µM in assay [15]; 37.5 µM in assay [16]; 18.9 µM in [17]; 7.17 µM in assay [18].

As for `C=C[C@@]1(C)CC[C@@H]2[C@@]3(C1)O[C@H]3CC1[C@](C)(C(=O)OC)CCC[C@@]12C` (some centres undefined), the TGI was > 100 µM in assay [1]; > 100 µM in assay [2]; 39.7 µM in assay [3]; > 100 µM in assay [4]; 31.3 µM in assay [5]; 56.8 µM in [7]. Besides, the TGI in assay [8] came to 42.1 µM; in assay [9] it was 58.4 µM; in assay [10], 33.8 µM; in assay [11], 40.6 µM; in assay [12], 29.5 µM; in [13], 55.9 µM. Further, the TGI in [14] was 67.2 µM; in assay [15], 31.8 µM; in [16], 44.2 µM; in assay [19], > 100 µM; in [18], > 100 µM.

With `C/C(=C(/C)c1ccc(O)cc1)c1ccc(O)cc1`, the TGI was > 100 µM in assay [1]; 83.3 µM in assay [2]; > 100 µM in assay [3]; > 100 µM in assay [4]; > 100 µM in assay [5]; > 100 µM in [6]. Further, the TGI in [7] was > 100 µM; in assay [9], > 100 µM; in [10], 91.6 µM; in [11], > 100 µM; in assay [12], > 100 µM; in assay [14] it was > 100 µM. For the same compound, the TGI is > 100 µM in [15]; 83.8 µM in assay [20]; 75.6 µM in [16]; > 100 µM in assay [17]; > 100 µM in [19]; > 100 µM in assay [18].

As to `COC(=O)[C@H](Cc1ccccc1)NP(=O)(OCCC#N)OCC1OC(n2cc(C)c(=O)[nH]c2=O)CC1N=[N+]=[N-]` (some centres undefined), the TGI in assay [1], in assay [2], in [3], in assay [4], in assay [5] and in [7] was > 100 µM throughout. Moreover, the TGI in [9], in assay [10], in assay [11], in assay [12], in [13] and in assay [14] was > 100 µM in each case. Moreover, the TGI in assay [15], in [16], in assay [17] and in assay [18] was > 100 µM each time.

Consider `CCc1cccc(C(C)(C)C)c1NC(=S)N/C=C(/C#N)C(N)=O`, for which the TGI in assay [1], in assay [2], in assay [3], in assay [4], in [5] and in [6] was > 100 µM throughout. The TGI in [7] was > 100 µM; in assay [8] it was > 100 µM; in assay [9] it was > 100 µM; in assay [10], 72 µM; in assay [11] it was > 100 µM; in assay [12] it was > 100 µM. Moreover, the TGI in [13], in assay [14], in [15], in [16], in [17] and in [19] was > 100 µM in each case. Besides, the TGI in [18] was > 100 µM.

`Cc1ccc2nc3c(=O)[nH]c(=O)nc-3n(C)c2c1C`: the TGI in assay [1], in [2], in assay [3], in assay [4], in [5] and in assay [6] was > 100 µM each time. The TGI in assay [7], in [8], in assay [9], in assay [11], in assay [12] and in assay [13] was > 100 µM each time. In addition, the TGI in [14], in assay [15], in [16], in [17] and in assay [18] was > 100 µM throughout.

Regarding `C=CCOc1cc(NC(=S)c2ccoc2C)ccc1OC`, the TGI in [1], in assay [2], in assay [3], in assay [4], in [5] and in assay [6] was > 100 µM throughout. For the same compound, the TGI in assay [7], in assay [8], in assay [9], in assay [10], in assay [12] and in assay [13] was > 100 µM in each case. Moreover, the TGI in assay [14], in assay [15], in assay [16], in [17], in assay [19] and in assay [18] was > 100 µM each time.

Consider `C[C@@]1(O)C[C@@H](N2C(=O)O[C@@H](c3ccccc3)[C@H]2c2ccccc2)[C@@H]1COCc1ccccc1`, for which the TGI in [1] is > 100 µM; in [2], 31.5 µM; in assay [3], 30 µM; in assay [5], 68.1 µM; in [6], 38.4 µM; in assay [7] it was 38.5 µM. In addition, the TGI in assay [8] is 44.5 µM; in assay [9], > 100 µM; in assay [10], 89 µM; in assay [11], 75.3 µM; in assay [12], > 100 µM; in [14], 51.2 µM. Further, the TGI in [15] is 67.8 µM; in assay [20], 52.7 µM; in [16], 62.9 µM; in [17], 38.5 µM; in [19], 52.9 µM; in assay [18] it was > 100 µM.

These data come from PubChem BioAssay (NCI).
